Laboratory results reported in patent publication US20250136574A1, “SELECTIVE AGENTS TARGETING MYCOBACTERIUM TUBERCULOSIS” (priority 2022, published 2025).
“And” between values parts separate entries of the source, which are not always exact repeats. Identical values can stand only once.

system: Vero TMPRSS2 cells; assay: Cytotoxicity at single concentration, CellTiter-Glo ATP quantitation; assay type: cell-based, African Green Monkey; details: 50 uM, 72 hours
Protocol: Cytotoxicity assays were conducted to measure toxicity of compounds at single concentration in Vero TMPRSS2 cells by using quantitation of ATP to indicate metabolically active cells. Vero cells (derived from African Green Monkey kidney epithelial tissue) were grown in Dulbecco's Modified Eagle Medium (DMEM) supplemented with 10% fetal bovine serum (FBS), 10 mM HEPES buffered saline, and 2 mM L-glutamine. 5,000 cells per well were seeded into a 96-well plate containing two-fold titrations of compounds. The concentration of DMSO was maintained at 0.5% for all wells to avoid toxicity. The plates were incubated for 72 hours, at which point they were acclimatized to room temperature for 30 minutes. 25 μL of the substrate/buffer solution from the Promega CellTiter-Glo Luminescent Cell Viability Assay kit was added to each well. The plates were shaken at a low orbital speed for 3 minutes and let rest at room temperature for 10 minutes, after which luminescence was measured using a BioTek Synergy H1 Microplate Reader H1M. The positive control was defined as wells containing cells without compounds.
Percent viability was calculated as follows: […]

| Compound | % Cell Viability Average | % Cell Viability Replicate 1 | % Cell Viability Replicate 2 |
| --- | --- | --- | --- |
| CO[C@H]1[C@H](O[C@H]([C@H]2O[C@@H](n3ccc(=O)[nH]c3=O)[C@H](O)[C@@H]2O)[C@H](NCCCNC(=O)[C@H](CC(C)C)NC(=O)[C@@H](NC(=O)N[C@H](C(=O)O)C(C)C)[C@@H]2CCN=C(N)N2)C(=O)O)O[C@H](CN)[C@H]1O [Muraymycin D1, reference compound] | 92.38% and 91.22% and 89.63% | 93.83% and 94.27% and 87.87% | 90.92% and 88.18% and 91.39% |
| Capuramycin B [reference compound] | 92.07% and 91.55% and 94.73% | 90.49% and 90.38% and 96.50% | 93.64% and 92.73% and 92.96% |
| CCC(CC)COC(=O)[C@H](C)N[P@](=O)(OC[C@H]1O[C@@](C#N)(c2ccc3c(N)ncnn23)[C@H](O)[C@@H]1O)Oc1ccccc1 [remdesivir, reference compound] | 94.25% and 93.47% and 89.22% | 94.32% and 91.48% and 89.25% | 94.19% and 95.46% and 89.19% |

same assay, conditions: 100 uM, 72 hours

| Compound | % Cell Viability Average | % Cell Viability Replicate 1 | % Cell Viability Replicate 2 |
| --- | --- | --- | --- |
| CCCCCCC#Cc1cncc(-c2nnc(SCc3ccc(C#N)cc3)n2C)c1 [drawing 98] | 66.33% | 75.34% | 57.31% |
| CCCCCCC#Cc1cncc(-c2nnc(SCc3ccc(C(F)(F)F)cc3)n2C)c1 [drawing 96] | 70.35% | 74.34% | 66.36% |
| C#Cc1cncc(-c2nnc(SCc3ccc(Cl)cc3)n2C)c1 [drawing 113] | 3.10% | 3.02% | 3.18% |
| CCCCCCC#Cc1cncc(-c2nnc(S)n2C)c1 | 0.76% | 0.70% | 0.82% |
| CCCCCCC#Cc1cncc(-c2nnc(SCc3cccc([N+](=O)[O-])c3)n2C)c1 | 26.47% | 26.28% | 26.66% |
| CCCCCCC#Cc1cncc(-c2nnc(SCc3ccc(Cl)cc3)n2C)c1 [drawing 114] | 2.36% | 2.25% | 2.47% |
| CCCCCCC#Cc1cccc(-c2nnc(SCc3ccc(Cl)cc3)n2C)c1 [drawing 115] | 1.77% | 1.97% | 1.58% |
| CCCCCCC#Cc1cncc(-c2nnc(SCc3ccc(Cl)cc3)n2C)c1 [drawing 100] | 54.05% | 53.54% | 54.56% |
| CCCCCCC#Cc1cncc(-c2nnc(SCc3ccc(Cl)cc3)n2C)c1 [drawing 116] | 1.67% | 1.57% | 1.76% |
| CCCCCCC#Cc1cncc(-c2nnc(SCCn3c([N+](=O)[O-])cnc3C)n2C)c1 [drawing 121] | 1.19% | 1.17% | 1.20% |
| CCCCCCC#Cc1cncc(-c2nnc(SCCCn3ccc(=O)[nH]c3=O)n2C)c1 | 14.14% | 9.07% | 19.21% |
| CCCCCCC#Cc1cncc(-c2nnc(SCc3ccc(Cl)c(Cl)c3)n2C)c1 [drawing 111] | 18.98% | 19.98% | 17.98% |
| CCCCCCC#Cc1cncc(-c2nnc(SCc3ccc([N+](=O)[O-])o3)n2C)c1 [drawing 120] | 1.31% | 1.30% | 1.31% |
| CCCCCCC#Cc1cncc(-c2nnc(SCc3ccc(F)cc3)n2C)c1 [drawing 110] | 19.61% | 32.71% | 6.50% |
| CCCCCCC#Cc1cncc(-c2nnc(SCc3ccc(Cl)cc3)n2C2CC2)c1 [drawing 107] | 33.69% | 32.40% | 34.99% |
| CCCCCCC#Cc1cncc(-c2nnc(SCc3ccc(Br)cc3)n2C)c1 [drawing 103] | 42.17% | 42.94% | 41.40% |
| CCCCCCC#Cc1cncc(-c2nnc(SCc3ccc(Cl)cc3)n2C)c1 [drawing 102] | 42.78% | 47.04% | 38.53% |
| CCCCCCC#Cc1cncc(-c2nnc(SCc3ccc(C)cc3)n2C)c1 [drawing 109] | 20.46% | 20.58% | 20.35% |
| CCCCCCC#Cc1cncc(-c2nnc(SCc3ccc(Cl)cc3)n2C)c1 [drawing 117] | 1.56% | 1.41% | 1.70% |
| CCCCCCC#Cc1cncc(-c2nnc(SCc3ccc(OC)cc3)n2C)c1 [drawing 99] | 54.63% | 60.30% | 48.95% |
| CCCCCCC#Cc1cncc(-c2nnc(SC[C@H]3O[C@@H](n4ccc(=O)[nH]c4=O)[C@@H]4OC(C)(C)O[C@@H]43)n2C)c1 | 1.10% | 1.02% | 1.19% |
| CCCCCCC#Cc1cncc(-c2nnc(SCc3ccc([N+](=O)[O-])cc3)n2C)c1 [drawing 106] | 34.59% | 39.61% | 29.56% |

same assay, conditions: 125 uM, 72 hours

| Compound | % Cell Viability Average | % Cell Viability Replicate 1 | % Cell Viability Replicate 2 |
| --- | --- | --- | --- |
| CCCCCCC#Cc1cncc(-c2nnc(SCc3ccc(Cl)cc3)[nH]2)c1 [drawing 97] | 67.98% | 68.39% | 67.58% |
| CCCCCCC#Cc1cncc(-c2nnc(SCc3ccc(Cl)c(F)c3)n2C)c1 [drawing 101] | 50.78% | 49.91% | 51.65% |
| CCCCCCC#Cc1cncc(-c2nnc(SCc3cc(F)cc(F)c3)n2C)c1 [drawing 123] | 0.96% | 0.98% | 0.94% |
| CCCCCCC#Cc1cncc(-c2nnc(SCc3ccc(Cl)cc3)[nH]2)c1 [drawing 119] | 1.41% | 1.43% | 1.38% |
| CCCCCCC#Cc1cncc(-c2nnc(SCc3cccc(Cl)c3)n2C)c1 [drawing 118] | 1.53% | 2.13% | 0.94% |
| CCCCCCC#Cc1cncc(-c2nnc(SCc3cc([N+](=O)[O-])cc([N+](=O)[O-])c3)n2C)c1 [drawing 104] | 41.70% | 42.56% | 40.84% |
| CCCCCCC#Cc1cncc(C(=O)NN)c1 | 36.66% | 34.62% | 38.69% |

same assay, conditions: 72 hours

| Compound | % Cell Viability Average | % Cell Viability Replicate 1 | % Cell Viability Replicate 2 |
| --- | --- | --- | --- |
| [H]/N=C(/N)N[C@H]1[C@H](O)[C@@H](O)[C@H](O[C@@H]2O[C@@H](C)[C@](O)(C=O)[C@H]2O[C@@H]2O[C@@H](CO)[C@H](O)[C@@H](O)[C@@H]2NC)[C@@H](N/C(N)=N\[H])[C@@H]1O [Streptomycin, reference compound] | 110.98% and 106.86% and 105.48% | 112.83% and 110.01% and 108.58% | 109.14% and 103.70% and 102.37% |

system: wild-type (WT) Mtb; assay: not given; assay type: cell-based, Mycobacterium tuberculosis; details: not given

| Compound | IC50 |
| --- | --- |
| CCCCCCC#Cc1cncc(-c2nnc(SCc3ccc(F)cc3)n2C)c1 [drawing 55 R = F] | 6.9 µM |
| CCCCCCC#Cc1cncc(-c2nnc(SCc3ncc([N+](=O)[O-])n3C)n2C)c1 | 94 µM |
| CCCCCCC#Cc1cncc(-c2nnc(SCc3ccc(Cl)cc3)n2Cc2ccccc2)c1 | > 200 µM |
| CCCCCCC#Cc1cncc(-c2nnc(SCc3ccc(OC)cc3)n2C)c1 [drawing 55 R = MeO] | 8.7 µM |
| CCCCCCC#Cc1cncc(-c2nnc(SCc3ccc(C(F)(F)F)cc3)n2C)c1 [drawing 55 R = CF3] | 44 µM |
| CCCCCCC#Cc1cncc(-c2nnc(SCc3ccc(Cl)cc3)n2CC)c1 | 4.7 µM |
| CCCCCCC#Cc1cncc(-c2nnc(SCc3ccc([N+](=O)[O-])o3)n2C2CC2)c1 [drawing 80] | < 0.78 µM |
| CCCCCCC#Cc1cncc(-c2nnc(SCc3cc(F)cc(F)c3)n2C)c1 [drawing 69] | 8 µM |
| CCCCCCC#Cc1cccc(-c2nnc(SCc3ccc(Cl)cc3)n2C)c1 [drawing 84] | 8.5 µM |
| CCCCCCC#Cc1cncc(-c2nnc(SCc3ccc(C)cc3)n2C)c1 [drawing 55 R = Me] | 6.1 µM |
| CCCCCCC#Cc1cncc(-c2nnc(SCc3ccc(F)c([N+](=O)[O-])c3)n2C)c1 | 44 µM |
| CCCCCCC#Cc1cncc(-c2nnc(SCc3ccc([N+](=O)[O-])cc3)n2C)c1 [drawing 55 R = NO2] | 5.9 µM |
| CCCCCCC#Cc1cncc(-c2nnc(Sc3ccc([N+](=O)[O-])c4nonc34)n2C)c1 | 27 µM |

same assay, conditions: text b333-b334; MABA

| Compound | antimycobacterial activity (in words) |
| --- | --- |
| CCCCCCC#Cc1cncc(-c2nnc(SCc3ccc([N+](=O)[O-])o3)n2C)c1 [nitrofuran bearing analog] | most potent |

same assay, conditions: text b333; MABA

| Compound | antimycobacterial activity |
| --- | --- |
| CCCCCCC#Cc1cncc(-c2nnc(SCc3cc([N+](=O)[O-])cc([N+](=O)[O-])c3)n2C)c1 [3,5-dinitrobenzyl analog] | 0.5 µM |
